Data from publication PMC8855532 (Journal of the American Chemical Society, 2022).

Target: 40-residue Alzheimer’s β-amyloid peptide (Aβ40) fibrils (Homo sapiens, UniProt P05067)
Assay: HPLC titration of free/bound ligand on preformed fibrils
Format: binding

40-residue Alzheimer’s β-amyloid peptide (Aβ40) fibrils, sequence (P05067 672-711): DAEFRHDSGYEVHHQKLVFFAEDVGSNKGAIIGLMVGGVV

Kd: 1600 ± 200 nM
Compound: CNc1ccc(-c2nc3ccc(O)cc3s2)cc1F [flutemetamol]
